Results taken from the METLIN SMRT retention time set (Domingo-Almenara et al. 2019).

Experiment: gradient 5% acetonitrile 3 min, to 50% in 2 min, to 85% in 15 min, held 3 min, 100 µL/min
Details: column: Zorbax Extend-C18 2.1 x 50 mm; eluents: water / acetonitrile, 0.1% formic acid
Procedure, shortened: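 The system's dead and dwell volumes were 40 μL and 900 μL, with a Zorbax Extend-C18 column (2.1 × 50 mm, 1.8 μm) run at 100 μL/min in water and acetonitrile containing 0.1% formic acid each. Pure standards were analyzed in mixtures of ~100 molecules by HPLC–quadrupole time-of-flight mass spectrometry in positive and negative ionization mode. Retention time was assigned from computationally picked, manually inspected adduct peaks.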

With `O=C(NCc1ccccc1F)c1c(O)c2cccnc2n(Cc2ccccc2)c1=O` the RP-LC retention time was 1360 s.
Compound `COc1ccc(Cl)cc1NC(=O)NCCc1cn(C)c2ncccc12` has an RP-LC retention time of 756 s.
Work on `COc1ccc(-c2csc3c(=O)n(Cc4cccc(OC)c4)cnc23)cc1` yielded an RP-LC retention time of 1030 s.
Compound `CCOc1ccc(C(=O)NC2CCN(c3cc(-c4ccc(Cl)cc4)[nH]n3)C2)cc1` (centres undefined) has an RP-LC retention time of 820 s.
With `CC(C)N1CCn2cc(S(=O)(=O)Nc3ccc(Cl)cc3F)cc2C1=O` the RP-LC retention time was 812 s.
Work on `CCOC(=O)c1cc(S(=O)(=O)N2CCCC2C(=O)Nc2ccc3c(c2)OCCO3)cn1C` (centres undefined) yielded an RP-LC retention time of 869 s.
`COc1ccc(NC(=O)CSc2nccnc2Sc2ccc(C)cc2)cc1OC` gave an RP-LC retention time of 997 s.
Work on `CCOc1cc2c(cc1OCC)C1C(C(=O)N3CCOCC3)c3ccccc3C(=O)N1CC2` (centres undefined) yielded an RP-LC retention time of 744 s.
With `COC(=O)c1ccccc1NC(=O)Cn1c(=O)n(-c2ccc(F)cc2)c(=O)c2c1cc(C)n2C` the RP-LC retention time was 933 s.
Work on `Cc1[nH]c(C(=O)N2CCCC(C(=O)NCc3ccc4c(c3)OCO4)C2)c(C)c1C(=O)OC(C)C` (centres undefined) yielded an RP-LC retention time of 842 s.
For `Cn1ncc(Cl)c1C(=O)N1CCCC1c1cccc(F)c1` (centres undefined), the RP-LC retention time was 813 s.
Work on `COc1ccccc1-c1noc(C2CCCN2C(=O)Nc2cccc(C)c2)n1` (centres undefined) yielded an RP-LC retention time of 881 s.
In the case of `Cc1ccccc1CNC(=O)C1(C)CCCN(C(=O)Nc2ccccc2Br)C1` (centres undefined), the RP-LC retention time is reported as 1020 s.
In the case of `O=C(NCc1ccccc1)N1CC(Oc2cccc(-c3nc(-c4ccccc4)no3)c2)C1`, the RP-LC retention time is reported as 1130 s.
`Cn1c(C(=O)Nc2ccc3c(c2)OCCO3)cc2c(=O)oc3ccccc3c21` showed an RP-LC retention time of 910 s.
For `Cc1ccc(-c2nnc(N3CCC(C(=O)NCc4ccc(C)o4)CC3)o2)cc1`, the RP-LC retention time was 853 s.
With `O=C(NCCc1ccco1)C1CCCN(C(=O)c2cccn2-c2cccnc2)C1` (centres undefined) the RP-LC retention time was 660 s.
Compound `CCn1cc(C(=O)Nc2cccc(C)c2)c2cccnc21` has an RP-LC retention time of 857 s.
Work on `COCCN1C(=O)c2ccccc2C(C(=O)NCc2ccc(Cl)cc2)C12CCCC2` (centres undefined) yielded an RP-LC retention time of 925 s.
For `COc1ccc(OC)c(S(=O)(=O)NC(C)c2ccccc2)c1` (centres undefined), the RP-LC retention time was 845 s.
Compound `CCn1nccc1-c1cccc(-c2noc(-c3cccs3)n2)c1` has an RP-LC retention time of 1130 s.
Compound `CCOc1ccc(CCNC(=O)c2c(C)oc3c2C2=NCCN2C=N3)cc1OCC` has an RP-LC retention time of 651 s.
`CC(=O)c1ccc(N2CCN(C(=O)C(=O)c3cccn3C)CC2)cc1` showed an RP-LC retention time of 735 s.
With `COc1ccc(-c2nc3cccnc3n2C2CCN(C(=O)NCc3ccco3)C2)cc1` (centres undefined) the RP-LC retention time was 627 s.
Work on `NC(=O)C1CCN(C(=O)CN2CCC(Cc3ccccc3)CC2)CC1` yielded an RP-LC retention time of 591 s.
In the case of `CCn1cc(CCNS(=O)(=O)CC)c2cccnc21`, the RP-LC retention time is reported as 630 s.
`CCn1c(=O)sc2cc(S(=O)(=O)N3CCC(C(=O)NC4CCCc5ccccc54)CC3)ccc21` (centres undefined) gave an RP-LC retention time of 957 s.
Compound `Cc1nnc(-c2coc(S(=O)(=O)N(C)C3CCCCC3)c2)o1` has an RP-LC retention time of 906 s.
Compound `O=C(Nc1cc(F)ccc1F)C1CCN(S(=O)(=O)c2cccnc2)CC1` has an RP-LC retention time of 784 s.
With `COc1cc2nc(C(=O)N3CCCCC3)cc(Nc3cccc(C(F)(F)F)c3)c2cc1OC` the RP-LC retention time was 752 s.
For `CCOC(=O)c1[nH]c(C)c(CN(Cc2ccco2)C(=O)Nc2cccc(F)c2)c1C`, the RP-LC retention time was 990 s.
For `COc1cccc2c(Nc3ccc(S(N)(=O)=O)cc3)cc(C(=O)N3CCSCC3)nc12`, the RP-LC retention time was 595 s.
With `CN(C)c1ccc(NC(=O)Cn2nc3c(Oc4ccc(Cl)cc4)nccn3c2=O)cc1` the RP-LC retention time was 674 s.
For `CCOc1ccccc1CNC(=O)C1CCCN(c2ncnc3c2oc2ccccc23)C1` (centres undefined), the RP-LC retention time was 813 s.
`COc1ccc(S(=O)(=O)Cc2nc(-c3ccccc3C)no2)cc1OC` showed an RP-LC retention time of 882 s.
For `CCn1cnc2cc(CNC(=O)Cc3ccsc3)ccc21`, the RP-LC retention time was 578 s.
In the case of `COc1ccc(F)cc1S(=O)(=O)N1CCC(n2cnnc2C)CC1`, the RP-LC retention time is reported as 650 s.
`CCC(=O)Nc1cccc(-c2nnc3n2CCC3)c1` showed an RP-LC retention time of 588 s.
`Cc1cnc(-c2ccncc2)n1C1CCN(C(=O)C2(C)CCCCC2)C1` (centres undefined) gave an RP-LC retention time of 626 s.
Compound `Cc1ccc(-n2nc(N3CCN(C(=O)Nc4ccc(F)cc4)CC3)ccc2=O)cc1` has an RP-LC retention time of 803 s.
`Cc1[nH]c2ccc(-c3nnc(SC(C)C(=O)Nc4ccc5c(c4)OCCO5)o3)cc2c1C` (centres undefined) showed an RP-LC retention time of 936 s.
For `CCOc1ccc(-c2ccc(=O)n(CCc3nc(-c4cccc(F)c4)no3)n2)cc1`, the RP-LC retention time was 1040 s.
With `CCc1ccccc1NC(=O)c1nnn(-c2ccc3noc(-c4ccccc4)c3c2)c1C` the RP-LC retention time was 1160 s.
`Cc1ccc(-n2ccc(=O)c(-c3nc(-c4ccc(F)c(Cl)c4)no3)n2)cc1` gave an RP-LC retention time of 1030 s.
In the case of `CCNc1cc(N2CCC(CCC(=O)NCc3ccccc3Cl)CC2)ncn1`, the RP-LC retention time is reported as 585 s.
Compound `COc1cccc(C(=O)N(CN2CCCC2=O)c2cccc(C(F)(F)F)c2)c1` has an RP-LC retention time of 757 s.
`COc1ccc(-c2nc3c4ccccc4ncn3n2)cc1` gave an RP-LC retention time of 924 s.
With `CSc1ccc(CNC(=O)c2cn3ccc(C)cc3n2)cc1` the RP-LC retention time was 699 s.
For `O=C(CN1CCCC(COCc2ccccc2)C1)Nc1nccs1` (centres undefined), the RP-LC retention time was 570 s.
With `CCc1nc(-c2csc(S(=O)(=O)N3CCC(C(=O)Nc4ccc(C)c(F)c4)CC3)c2)no1` the RP-LC retention time was 1060 s.
In the case of `c1ccc(CNc2c(-c3ccccc3)nc3ncccn23)cc1`, the RP-LC retention time is reported as 709 s.
For `Cc1ccc(S(=O)(=O)N2C(=O)CCC2C(=O)Nc2cccc3ccccc23)cc1` (centres undefined), the RP-LC retention time was 933 s.
Work on `CN1c2ccccc2C(=O)NC12CCN(C(=O)c1ccccc1)CC2` yielded an RP-LC retention time of 700 s.
Work on `COc1ccccc1-c1cc(C(=O)N2CCN(c3cc(=O)n(C)c(=O)n3C)CC2)[nH]n1` yielded an RP-LC retention time of 665 s.
In the case of `Cc1ccc(F)cc1NC(=O)Cc1nnc(-c2cnccn2)o1`, the RP-LC retention time is reported as 683 s.
Compound `Cc1cccc(C)c1NC(=O)C1CCCN(c2nc3ccccc3nc2C(F)(F)F)C1` (centres undefined) has an RP-LC retention time of 1170 s.
Work on `CC(NC(=O)c1cnn2c(-c3ccc4c(c3)OCO4)ccnc12)c1ccc(F)cc1` (centres undefined) yielded an RP-LC retention time of 1000 s.
In the case of `O=C1NC2(CCN(C(=O)Nc3ccc4c(c3)OCCO4)CC2)Oc2ccccc21`, the RP-LC retention time is reported as 736 s.
In the case of `COc1ccc(C2C(C(=O)OC(C)C)=C(C)NC3=C2C(=O)CCC3)c(OC)c1OC` (centres undefined), the RP-LC retention time is reported as 778 s.
`COCCN1C(=O)CCc2cc(NC(=O)C(C)(C)C)ccc21` showed an RP-LC retention time of 707 s.
In the case of `COCCc1noc(-c2nc(-c3ccc(OC)c(OC)c3)no2)n1`, the RP-LC retention time is reported as 892 s.
`O=C(Nc1ccc2c(c1)N(C(=O)C1CCCO1)CC2)c1ccc(F)c(F)c1` (centres undefined) gave an RP-LC retention time of 771 s.
`Cc1cc(C2CCCN2C(=O)c2c(F)cccc2Cl)on1` (centres undefined) showed an RP-LC retention time of 773 s.
`O=C(NC1CCCCC1)C1CCCN(C(=O)c2ccc(F)c(F)c2)C1` (centres undefined) showed an RP-LC retention time of 825 s.
`CCN(CC)C(=O)Cn1nc(-c2nc(-c3ccc(F)cc3)no2)ccc1=O` gave an RP-LC retention time of 861 s.
`Cc1cccc(CNC(=O)c2nc3cccnc3n(CC(C)C)c2=O)c1` showed an RP-LC retention time of 580 s.
For `COc1cccc(CC(=O)NC(CC(C)C)C(=O)Nc2nc3ccccc3[nH]2)c1` (centres undefined), the RP-LC retention time was 721 s.
For `Cn1cc(CN2CCC(C(=O)NC3CCCCC3)CC2)c2cc(Cl)ccc21`, the RP-LC retention time was 702 s.
Work on `CCS(=O)(=O)c1ccc2c(c1)N(Cc1nc(-c3ccc(F)cc3)no1)C(=O)CO2` yielded an RP-LC retention time of 902 s.
`O=C(Nc1ccc2sccc2c1)c1coc2ccccc2c1=O` showed an RP-LC retention time of 1070 s.
`CC(C)CNC(=O)CCn1c(=O)c2ccccc2n2c(=O)n(Cc3cccc(F)c3)nc12` gave an RP-LC retention time of 867 s.
In the case of `Cc1csc(-c2cc(S(=O)(=O)NCC3CC3)cn2CC(=O)N2CCCCC2)n1`, the RP-LC retention time is reported as 905 s.
For `CCN1C(=O)c2cccnc2Sc2cc(NC(=O)C3CCC3)ccc21`, the RP-LC retention time was 745 s.
Compound `CCn1cc(C2=CCN(S(=O)(=O)c3ccc(C)c(Cl)c3)CC2)c2cccnc21` has an RP-LC retention time of 1180 s.
`Cc1ccc(-c2cn3c(CC(=O)NCc4ccc5c(c4)OCO5)csc3n2)cc1C` gave an RP-LC retention time of 794 s.
Compound `CCN(CC)S(=O)(=O)c1ccc2c(c1)N(CC(=O)NCc1cccnc1)C(=O)C1CCCCN21` (centres undefined) has an RP-LC retention time of 653 s.
For `Cc1ccc(Cl)cc1NC(=O)CN1CCN(Cc2ccc(F)cc2)C(=O)C1=O`, the RP-LC retention time was 804 s.
Work on `Cc1oc(-c2[nH]ncc2C(=O)N(C)C)cc1S(=O)(=O)NCc1ccccc1Cl` yielded an RP-LC retention time of 693 s.
`CCOC(=O)c1sc(NC(=O)CN2CCN(c3ccccn3)CC2)nc1C` showed an RP-LC retention time of 605 s.
Compound `Cc1c(Cl)cccc1Nc1c(-c2ccc(Cl)cc2)nc2ncccn12` has an RP-LC retention time of 992 s.
For `COc1ccc(Nc2c(C(=O)N3CCCC(C)C3)cnc3nc(C)ccc23)cc1` (centres undefined), the RP-LC retention time was 650 s.
`Cc1ccc(C)c(CNC(=O)c2ccc(-c3cccnc3)nc2)c1` showed an RP-LC retention time of 722 s.
In the case of `Cc1nnc(-c2cc(C)n(CC(=O)Nc3ccc(C)c(C)c3)c2C)o1`, the RP-LC retention time is reported as 809 s.
`CCCCn1cc(S(=O)(=O)NCc2cccc(Cl)c2)c2cccnc21` gave an RP-LC retention time of 1020 s.
Work on `Cc1cc(C)cc(NC(=O)c2cccn2Cc2noc(C)n2)c1` yielded an RP-LC retention time of 928 s.
With `CSc1ccc(-c2nc3cnccn3c2Nc2cccc(C(=O)NC3CCCCC3)c2)cc1` the RP-LC retention time was 892 s.
In the case of `O=S(=O)(Cc1ccccc1)N1CCC(OCCOc2cccnc2)CC1`, the RP-LC retention time is reported as 665 s.
In the case of `CCOC(=O)Cn1c(=O)c2cnc(-c3ccc(C)cc3)nc2n(C)c1=O`, the RP-LC retention time is reported as 1060 s.
`Cc1cc(C)cc(OCCNC(=O)Nc2cc(F)ccc2F)c1` showed an RP-LC retention time of 992 s.
